Article PMC8151276, “An Integrated Approach toward NanoBRET Tracers for Analysis of GPCR Ligand Engagement” (Molecules, 2021)

Molecular target: T1, DRD3 (Homo sapiens, UniProt P35462)
T1 construct: purchased Promega (in-house HiBiT-GPCR construct library, NanoBRET)
Experiment: NanoBRET screen HiBiT-DRD3 in HEK293
Assay type: binding
Protocol: Each tracer candidate was screened across the entire library of HiBiT-GPCR constructs using NanoBRET as the detection modality. As depicted in Figure 4A, the specificity of interactions was evaluated through decrease in BRET due to competitive displacement of a bound tracer by excess parental compound. Each tracer was analyzed for binding to each HiBiT-GPCR fusion in the absence and in the presence of competing parental compound. Briefly, HEK293 cells were transfected with HiBiT-GPCR constructs diluted into promoterless DNA to reduce expression and maximize translocation to the cell surface. Each tracer candidate was then screened at concentrations of 1 μM and 0.1 μM across cells expressing these fusions. Cells were treated for 1.5 h with tracer either alone or in the presence of 20 μM competing parental compound (i.e., control). BRET was measured upon addition of purified LgBiT and subsequent complementation with HiBiT genetically fused to a GPCR. The specificity of interactions was assessed through a decrease in BRET signal due to competitive displacement of the bound tracer. To further gauge the robustness of these interactions, the fold response over the control (i.e., BRETtracer/BRETcontrol) was calculated. We chose a 1.5-fold response, which translates to ≥7-fold signal over noise as the minimal threshold required to score an interaction as positive.
HiBiT-GPCR DNA constructs were diluted in 10 mM Tris pH 8 to a final concentration of 0.01 μg/μL, arrayed in 96-well plates and stored at −20 °C. For transfection, HEK293 cells were suspended in Opti-MEM (without phenol red) supplemented with 2% fetal bovine serum (Seradigm) and 100 units/mL penicillin–streptomycin (Gibco) at a final concentration of 220,000 cells/mL and dispensed into white 96-well plates at 90 μL/well. Subsequent transfections and screens were carried using an Agilent Bravo Automated Liquid Handling Platform. First, the 96-well HiBiT DNA arrays were diluted 25-fold in Opti-MEM (without serum or phenol red) to a final concentration of 0.0004 μg/μL and 20 μL of the diluted DNAs were transferred into new 96-well plates. Next, promoterless carrier DNA (1 μg/μL) was diluted 25-fold (0.04 μg/μL) and then dispensed into the diluted arrays at 20 μL/well. Following brief mixing, Viafect transfection reagent (Promega) diluted 16-fold into Opti-MEM was dispensed into the plates at 40 μL/well. After mixing by pipetting, plates were incubated for 10 min on the pipetting station deck. The DNA-transfection reagent complexes were then added to plates containing cells. To facilitate the screen, 10 μL of DNA-transfection reagent complexes were added in duplicates to the top 4 and bottom 4 rows, resulting in two identical 48-well arrays per plate. Plates with transfected cells were incubated for 18–20 h at 37 °C/5% CO2. A screen of each tracer across the entire library using two different concentrations requires duplicate plates of transfected cells. Depending on the number of tracers being screened, transfections can be scaled up using the same ratios. The next day, for each tracer, four 20× screening solutions in tracer dilution buffer (Promega) were prepared: two duplicates at final concentration of 20 μM and two duplicates at a final concentration of 2 μM. […] The four resulting solutions were diluted 4-fold in Opti-MEM without serum or phenol red to generate 5× solutions (5 µM and 0.5 µM tracer +/− 100 μM competing compound). To screen the library, a BioTek MultiFlo FX liquid dispenser was used to dispense 22.5 µL of tracer solution to the top 4 rows and 22.5 µL tracer + competing compound solution to the 4 bottom rows. Plates were briefly mixed on an orbital shaker and incubated for 1.5 h at room temperature. […] Plates were briefly mixed on an orbital shaker and incubated for 15 min to allow complementation.

T1 sequence (P35462 whole entry): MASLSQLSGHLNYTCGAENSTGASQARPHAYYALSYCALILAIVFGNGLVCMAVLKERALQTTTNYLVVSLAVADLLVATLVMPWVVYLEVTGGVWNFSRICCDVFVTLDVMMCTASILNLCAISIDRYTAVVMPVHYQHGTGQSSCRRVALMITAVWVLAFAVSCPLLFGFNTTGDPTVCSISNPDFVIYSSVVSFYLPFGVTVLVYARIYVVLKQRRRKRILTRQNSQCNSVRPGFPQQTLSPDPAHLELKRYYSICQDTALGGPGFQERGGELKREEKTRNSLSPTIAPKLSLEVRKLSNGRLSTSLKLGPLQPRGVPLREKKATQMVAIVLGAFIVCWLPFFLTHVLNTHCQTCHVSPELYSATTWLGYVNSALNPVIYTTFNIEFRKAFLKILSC

SMILES: CCOC(=O)c1cc(C#N)c(N2CCC(C(=O)NS(=O)(=O)Cc3ccccc3/C=C/C(=O)NCCNC(=O)CCc3ccc4n3[B-](F)(F)[N+]3=C(c5ccc[nH]5)C=CC3=C4)CC2)nc1C [AZD1283-1-NB590]
- NanoBRET Fold Response (DRD3, 0.1μM): 0.99
- NanoBRET Fold Response (DRD3, 1μM): 1.01

SMILES: N#CN/C(=N\CCNC(=O)c1ccc(N)cc1)NCCCOc1cccc(CN2CCCCC2)c1 [Aminopotentidine (unmodified)]
- NanoBRET Fold Response (DRD3, other tracers/Aminopotentidine (unmodified), 0.1μM): 1.16
- NanoBRET Fold Response (DRD3, other tracers/Aminopotentidine (unmodified), 1μM): 1.64

SMILES: N#CN=C(NCCCOc1cccc(CN2CCCCC2)c1)NCCNC(=O)CCOCCOCCOCCOCCNC(=O)CCc1ccc2n1[B-](F)(F)[N+]1=C(c3ccc[nH]3)C=CC1=C2 [Aminopotentidine-2-NB590]
- NanoBRET Fold Response (DRD3, tracer 0.1μM): 1.25
- NanoBRET Fold Response (DRD3, tracer 1μM): 1.17

SMILES: CN(C)CCC=C1c2ccccc2CCc2ccc(C(=O)NCCNC(=O)CCOCCOCCOCCOCCNC(=O)CCc3ccc4n3[B-](F)(F)[N+]3=C(c5ccc[nH]5)C=CC3=C4)cc21 [Amitriptyline-a-2-NB590]
- NanoBRET Fold Response (tracer at 0.1μM): 1.13
- NanoBRET Fold Response (tracer at 1μM): 1.37

SMILES: CN(C)CCC=C1c2ccccc2CCc2ccc(C(=O)NCCNC(=O)CCOCCOCCOCCOCCNC(=O)CCc3ccc4n3[B-](F)(F)[N+]3=C(c5ccc[nH]5)C=CC3=C4)cc21 [Amitriptyline-b-2-NB590]
- NanoBRET Fold Response (tracer at 0.1μM, listed as amitriptyline-b-2-NB590): 1.68
- NanoBRET Fold Response (tracer at 1μM, listed as amitriptyline-b-2-NB590): 1.25

SMILES: CN(CCC=C1c2ccccc2CCc2ccccc21)C(=O)CCOCCOCCOCCOCCNC(=O)CCc1ccc2n1[B-](F)(F)[N+]1=C(c3ccc[nH]3)C=CC1=C2 [Amitriptyline-e-2-NB590]
- NanoBRET Fold Response (tracer at 1μM): 1.24

SMILES: COc1ccc2c(n1)c(CCNC(C)=O)cn2CCNC(=O)CCc1ccc2n1[B-](F)(F)[N+]1=C(c3ccc[nH]3)C=CC1=C2 [Azamelatonin-1-NB590]
- NanoBRET Fold Response (0.1μM tracer): 1.14
- NanoBRET Fold Response (1μM tracer): 1.27

SMILES: COc1ccc2[nH]c(-c3ccc(CNC(=O)CCOCCOCCOCCOCCNC(=O)CCc4ccc5n4[B-](F)(F)[N+]4=C(c6ccc[nH]6)C=CC4=C5)cc3)c(CCNC(C)=O)c2n1 [AzomelatoninICO9-2-NB590]
- NanoBRET Fold Response (0.1μM tracer): 0.93
- NanoBRET Fold Response (1μM tracer): 1.05

SMILES: O=C(CCOCCOCCOCCOCCNC(=O)CCc1ccc2n1[B-](F)(F)[N+]1=C(c3ccc[nH]3)C=CC1=C2)NCCCN1CCN(C2=Nc3cc(Cl)ccc3Nc3ccccc32)CC1 [Clozapine-a-2-NB590]
- NanoBRET Fold Response (DRD3, 0.1μM tracer): 2.22
- NanoBRET Fold Response (DRD3, 1μM tracer): 2.49

SMILES: CN1CCN(C2=Nc3cc(Cl)ccc3Nc3ccc(CNC(=O)CCOCCOCCOCCOCCNC(=O)CCc4ccc5n4[B-](F)(F)[N+]4=C(c6ccc[nH]6)C=CC4=C5)cc32)CC1 [Clozapine-b-2-NB590]
- NanoBRET Fold Response (DRD3, 0.1μM tracer): 1.54
- NanoBRET Fold Response (DRD3, 1μM tracer): 2.63

SMILES: CN1CCN(C2=Nc3cc(Cl)ccc3N(CC(=O)NCCOCCOCCOCCOCCNC(=O)CCc3ccc4n3[B-](F)(F)[N+]3=C(c5ccc[nH]5)C=CC3=C4)c3ccccc32)CC1 [Clozapine-c-2-NB590]
- NanoBRET Fold Response (DRD3, 0.1μM tracer): 0.96
- NanoBRET Fold Response (DRD3, 1μM tracer): 0.76

SMILES: COc1ccccc1N1CCN(CCCCN2C(=O)c3ccc(CNC(=O)CCOCCOCCOCCOCCNC(=O)CCc4ccc5n4[B-](F)(F)[N+]4=C(c6ccc[nH]6)C=CC4=C5)cc3C2=O)CC1 [NAN-190-2-NB590]
- NanoBRET Fold Response (DRD3, tracer 0.1μM): 2.36
- NanoBRET Fold Response (DRD3, tracer 1μM): 1.69

SMILES: COc1ccccc1N1CCN(CCCCN2C(=O)c3ccc(CNC(=O)CCOCCNC(=O)c4ccc(CNC(=O)CCc5ccc6n5[B-](F)(F)[N+]5=C(c7ccc[nH]7)C=CC5=C6)cc4)cc3C2=O)CC1 [NAN-190-3-NB590]
- NanoBRET Fold Response (DRD3, tracer 0.1μM): 2.25
- NanoBRET Fold Response (DRD3, tracer 1μM): 1.52

SMILES: O=C(CCc1ccc2n1[B-](F)(F)[N+]1=C(c3ccc[nH]3)C=CC1=C2)NCc1ccc(C(=O)NCCOCCC(=O)N[C@@H]2CC[C@@]3(O)[C@H]4Cc5ccc(O)c6c5[C@@]3(CCN4CC3CC3)[C@H]2O6)cc1 [Naltrexone-3-NB590]
- NanoBRET Fold Response (DRD3, tracer 0.1μM): 0.79
- NanoBRET Fold Response (DRD3, tracer 1μM): 1.37

SMILES: Cc1cc2c(s1)Nc1ccccc1N=C2N1CCN(CCCNC(=O)CCOCCOCCOCCOCCNC(=O)CCc2ccc3n2[B-](F)(F)[N+]2=C(c4ccc[nH]4)C=CC2=C3)CC1 [Olanzapine-a-2-NB590]
- NanoBRET Fold Response (DRD3, tracer 0.1μM): 1.74
- NanoBRET Fold Response (DRD3, tracer 1μM): 2.07

SMILES: O=C(CCc1ccc2n1[B-](F)(F)[N+]1=C(c3ccc[nH]3)C=CC1=C2)NCc1ccc(C(=O)NCCOCCOCCNCC(O)COc2cccc3ccccc23)cc1 (stereo not drawn) [Propranolol-3-NB590]
- NanoBRET Fold Response (DRD3, 0.1μM): 1.05
- NanoBRET Fold Response (DRD3, 1μM): 1.30

SMILES: O=C(CCc1ccc2n1[B-](F)(F)[N+]1=C(c3ccc[nH]3)C=CC1=C2)NCCOCCOCCNC(=O)OCCOCCN1CCN(C2=Nc3ccccc3Sc3ccccc32)CC1 [Quetiapine-a-2-NB590]
- NanoBRET Fold Response (DRD3, tracer 0.1μM): 1.56
- NanoBRET Fold Response (DRD3, tracer 1μM): 1.98

SMILES: CC(C)N(CC[C@H](c1ccccc1)c1cc(CCNC(=O)CCOCCOCCOCCOCCNC(=O)CCc2ccc3n2[B-](F)(F)[N+]2=C(c4ccc[nH]4)C=CC2=C3)ccc1O)C(C)C [Tolterodine-2-NB590]
- NanoBRET Fold Response (DRD3, tracer 0.1μM): 0.97
- NanoBRET Fold Response (DRD3, tracer 1μM): 0.98

SMILES: CC(C)N(CC[C@H](c1ccccc1)c1cc(CCNC(=O)c2ccc(CNC(=O)CCc3ccc4n3[B-](F)(F)[N+]3=C(c5ccc[nH]5)C=CC3=C4)cc2)ccc1O)C(C)C [Tolterodine-BZ-NB590]
- NanoBRET Fold Response (DRD3, tracer 0.1μM): 0.91
- NanoBRET Fold Response (DRD3, tracer 1μM): 1.25

SMILES: CCCn1c(=O)c2[nH]c(-c3ccc(OCC(=O)NCCNC(=O)CCOCCNC(=O)c4ccc(CNC(=O)CCc5ccc6n5[B-](F)(F)[N+]5=C(c7ccc[nH]7)C=CC5=C6)cc4)cc3)nc2n(CCC)c1=O [XAC-3-NB590]
- NanoBRET Fold Response (DRD3, tracer 0.1μM): 1.23
- NanoBRET Fold Response (DRD3, tracer 1μM): 0.81
